The nature of one data set: Solubility in water. The conditions noted are these: water or physiological buffers. It is filed as physicochemical.
A further data set has as its system MDCK cells. The experiment in a line: crystal violet cell adhesion (CVCA) cell toxicity assay.
[1] abbreviates: Canis lupus familiaris, MDCK, read-out: EC50 (μM), Active Compound.

Counter-ions that a name gives are not always drawn. Like-named read-outs stand apart in the source and are kept apart here.

For `Cc1c2c(c(C)c(-c3ccccc3)c1-c1ccccc1)C(=O)N(c1ccc(O)c([N+](=O)[O-])c1)C2=O` [BP-11, 2-(4-Hydroxy-3-nitrophenyl)-4,7-dimethyl-5,6-diphenyl-1H-isoindole-1,3(2H)-dione], the melting point is > 250 °C.

For the compound `Cc1c2c(c(C)c(-c3ccccc3)c1-c1ccccc1)C(=O)N(CCNC(=O)OC(C)(C)C)C2=O` [BP-20, Tert-Butyl (2-(4,7-dimethyl-1,3-dioxo-5,6-diphenylisoindolin-2-yl)ethyl)carbamate], the melting point was in the range of 181 to 182 °C. With `COC(=O)[C@@H](N)CCCCN1C(=O)C2C3(C)C(=O)C(C)(C(c4ccccc4)=C3c3ccccc3)C2(Br)C1=O` (stereo partly drawn) [oCOm-30, Methyl (2S)-2-amino-6-(3a-bromo-4,7-dimethyl-1,3,8-trioxo-5,6-diphenyl-1,3,3a,4,7,7a-hexahydro-2H-4,7-methanoisoindol-2-yl)hexanoate Trifluoroacetic Acid Salt], the “solubility (in words)” value in “Solubility in water” was “water soluble”. Further, the EC50 with MDCK cells (setting [1]) is > 100 µM. Regarding `Cc1noc([C@@H](N)CCCCN2C(=O)C3C4(C)C(=O)C(C)(C(c5ccccc5)=C4c4ccccc4)C3(Br)C2=O)n1` (stereo partly drawn) [oCOM-43, (1S)-1-amino-5-(3a-bromo-4,7-dimethyl-1,3,8-trioxo-5,6-diphenyl-1,3,3a,4,7,7a-hexahydro-2H-4,7-methanoisoindol-2-yl)-1-(3-methyl-1,2,4-oxadiazol-5-yl)pentane Trifluoroacetic Acid Salt], the concentration for a half-maximal effect (EC50) in the data set with MDCK cells (setting [1]) was > 100 µM. In turn, `CC12C(=O)C(C)(C(c3ccccc3)=C1c1ccccc1)C1(Cl)C(=O)N(c3ccccc3)C(=O)C21` (stereo not drawn) [oCOm-2, 3a-Chloro-3a,4,7,7a-tetrahydro-4,7-dimethyl-2,5,6-triphenyl-4,7-methano-1H-isoindole-1,3,8(2H)-trione] displayed a melting point of 182 to 184 °C. On the same count and under the same terms, the result for `Cc1c2c(c(C)c(-c3ccccc3)c1-c1ccccc1)C(=O)N(CCC(=O)NCCNC(=O)OC(C)(C)C)C2=O` [BP-18, Tert-Butyl (2-(3-(4,7-dimethyl-1,3-dioxo-5,6-diphenylisoindolin-2-yl)propanamido)ethyl)carbamate] reads 183 to 185 °C; that for `CC12C(=O)C(C)(C(c3ccccc3)=C1c1ccccc1)C1(Br)C(=O)N(c3ccc(O)c([N+](=O)[O-])c3)C(=O)C21` (stereo not drawn) [oCOm-11, 3a-Bromo-3a,4,7,7a-tetrahydro-4,7-dimethyl-2-(4-hydroxy-3-nitrophenyl)-5,6-diphenyl-4,7-methano-1H-isoindole-1,3,8(2H)-trione], 207 °C (dec.); that for `CC(=O)OC[C@H]1O[C@@H](Oc2ccc(N3C(=O)c4c(C)c(-c5ccccc5)c(-c5ccccc5)c(C)c4C3=O)cc2)[C@H](OC(C)=O)[C@@H](OC(C)=O)[C@@H]1OC(C)=O` [BP-14, N-(4-O-(2,3,4,6-tetra-O-acetyl-β-D-glucopyranosyl)phenyl)-3,6-dimethyl-4,5-diphenyl-3,6-phthalimide], 113 to 115 °C. Consider `Cc1c2c(c(C)c(-c3ccccc3)c1-c1ccccc1)C(=O)N(CCN)C2=O` [BP-21, 2-(4,7-Dimethyl-1,3-dioxo-5,6-diphenylisoindolin-2-yl)ethanaminium 2,2,2-trifluoroacetate, reference compound], for which the EC50 in the data set with MDCK cells (Canis lupus familiaris, MDCK, read-out: EC50 (μM), Inactive Compound) was 21 µM. Consider `CC(C)(C)OC(=O)N[C@@H](CCCCN1C(=O)C2C3(C)C(=O)C(C)(C(c4ccccc4)=C3c3ccccc3)C2(Br)C1=O)C(=O)O` (stereo partly drawn) [oCOm-27, (2S)-2-tert-butoxycarbonylamino-6-(3a-bromo-4,7-dimethyl-1,3,8-trioxo-5,6-diphenyl-1,3,3a,4,7,7a-hexahydro-2H-4,7-methanoisoindol-2-yl) hexanoic acid], for which the melting point lay in the range of 87 to 92 °C. For `CC12C(=O)C(C)(C(c3ccccc3)=C1c1ccccc1)C1(Br)C(=O)N(CCCCCC(=O)O)C(=O)C21` (stereo not drawn) [oCOM-38, 6-(3a-bromo-4,7-dimethyl-1,3,8-trioxo-5,6-diphenyl-1,3,3a,4,7,7a-hexahydro-2H-4,7-methanoisoindol-2-yl)-hexanoic Acid], the EC50 in the data set with MDCK cells (setting [1]) was > 100 µM. Compound `CC12C(=O)C(C)(C(c3ccccc3)=C1c1ccccc1)C1(S(=O)(=O)c3ccccc3)C(=O)N(c3ccccc3)C(=O)C21` (stereo not drawn) [oCOm-6, 3a-Phenylsulfonyl-3a,4,7,7a-tetrahydro-4,7-dimethyl-2,5,6-triphenyl-4,7-methano-1H-isoindole-1,3,8(2H)-trione] yielded a melting point of 106 °C. In the case of `CN(C)C(=O)[C@@H](N)CCCCN1C(=O)C2C3(C)C(=O)C(C)(C(c4ccccc4)=C3c3ccccc3)C2(Br)C1=O` (stereo partly drawn) [oCOM-36, N,N-Dimethyl (2S)-2-amino-6-(3a-bromo-4,7-dimethyl-1,3,8-trioxo-5,6-diphenyl-1,3,3a,4,7,7a-hexahydro-2H-4,7-methanoisoindol-2-yl)-hexanamide Trifluoroacetic Acid Salt], the concentration for a half-maximal effect (EC50) with MDCK cells (setting [1]) is > 100 µM. Turning to `Cc1c2c(c(C)c(-c3ccccc3)c1-c1ccccc1)C(=O)N(CCNCCN)C2=O` [BP-23, 2-(2-(2-Aminoethyl)aminoethyl)-4,7-dimethyl-5,6-diphenyl-1H-isoindole-1,3,8(2H)-diione Bis-trifluoroacetate Salt], in the data set on MDCK cells (read-out: EC50 (μM), Inactive Compound, MDCK cells, inactive debromo or CO depleted analogues, 37° C.), the concentration giving a half-maximal response (EC50) is > 100 µM. On to `COC(=O)[C@H](CCCCN1C(=O)C2C3(C)C(=O)C(C)(C(c4ccccc4)=C3c3ccccc3)C2(Br)C1=O)NC(C)=O` (stereo partly drawn) [oCOM-41, Methyl (2S)-2-acetamido-6-(3a-bromo-4,7-dimethyl-1,3,8-trioxo-5,6-diphenyl-1,3,3a,4,7,7a-hexahydro-2H-4,7-methanoisoindol-2-yl)hexanoate], for which the EC50 in the data set on MDCK cells (setting [1]) is > 100 µM. The same measure, in the same setting: for `Cc1nnc([C@@H](N)CCCCN2C(=O)C3C4(C)C(=O)C(C)(C(c5ccccc5)=C4c4ccccc4)C3(Br)C2=O)o1` (stereo partly drawn) [oCOM-45, (1S)-1-Amino-5-(3a-bromo-4,7-dimethyl-1,3,8-trioxo-5,6-diphenyl-1,3,3a,4,7,7a-hexahydro-2H-4,7-methanoisoindol-2-yl)-1-(5-methyl-1,3,-oxadiazol-2-yl)pentane Trifluoroacetic Acid Salt] the value was > 100 µM.

`CC(=O)OCCN1C(=O)c2c(C)c(-c3ccccc3)c(-c3ccccc3)c(C)c2C1=O` [BP-16, 4,7-Dimethyl-2-(2-acetoxyethyl)-5,6-diphenyl-1H-isoindole-1,3(2H)-dione] registered a melting point of 155 °C. On the same count and under the same terms, for `CC12C(=O)C(C)(C(c3ccccc3)=C1c1ccccc1)C1(Sc3ccccc3)C(=O)N(c3ccccc3)C(=O)C21` (stereo not drawn) [oCOm-4, 3a-Phenylthio-3a,4,7,7a-tetrahydro-4,7-dimethyl-2,5,6-triphenyl-4,7-methano-1H-isoindole-1,3,8(2H)-trione] the value was 193 °C; for `CC12C(=O)C(C)(C(c3ccccc3)=C1c1ccccc1)C1([S+]([O-])c3ccccc3)C(=O)N(c3ccccc3)C(=O)C21` (stereo not drawn) [oCOm-5, 3a-Phenylsulfinyl-3a,4,7,7a-tetrahydro-4,7-dimethyl-2,5,6-triphenyl-4,7-methano-1H-isoindole-1,3,8(2H)-trione], 186 °C; for `Cc1c2c(c(C)c(-c3ccccc3)c1-c1ccccc1)C(=O)N(CCN(CCNC(=O)OC(C)(C)C)C(=O)OC(C)(C)C)C2=O` [BP-22, Tert-Butyl (3-((tert-butoxycarbonyl)amino)ethyl)(2-(4,7-dimethyl-1,3-dioxo-5,6-diphenylisoindolin-2-yl)ethyl)carbamate], 202 to 205 °C.

Broadly, the melting point is the temperature, or range, at which the solid turns liquid. Broadly, the EC50 is the concentration that produces a half-maximal response.

The values are drawn from patent US11072584B2, “Carbon monoxide releasing norbornenone compounds” (OTAGO INNOVATION LIMITED, priority 2015, dated 2021).
